The record followed here is patent publication US20260297085A1, “1 H-PYRROLO[2,3-B]PYRIDIN-4-YL]-2-OXOPYRROLIDINE-3-CARBONITRILE DERIVATIVES AS TYROSINE KINASE 2 (TYK2) INHIBITORS FOR THE TREATMENT OF INFLAMMATORY DISEASES” (BIOGEN MA INC., priority 2023, published 2026).

pIC50: −log10 of the molar value. Counter-ions that a name gives are not always drawn.

Test [1] has as its target T1, human JAK3 kinase domain (JH1) (Homo sapiens, UniProt P52333).
T1 construct: recombinantly generated catalytic kinase (also known as JH1) domain of human JAK1, JAK2, JAK3 and TYK2
Put plainly: JH1 biochemical assay for JAK3 (ADP-Glo kinase assay, recombinant JH1 catalytic domain, JAK3-974 peptide, 4 μM ATP). The gist of the method: (§1)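 Compounds were titrated in 11 points of 3-fold dilution starting at 10 μM or 1 μM. Enzyme (JAK1 4 nM, JAK2 0.2 nM, JAK3 0.3 nM, TYK2 2 nM) and 50 μM peptide reacted for 100 minutes, followed by ADP-to-luminescence detection; IC50 by 4-parameter fit.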
(ADP-Glo turns the ADP formed in a reaction into a luminescent signal.)

Test [2] deals with T2, human TYK2 kinase domain (JH1) (Homo sapiens, UniProt P29597).
T2 construct: recombinantly generated catalytic kinase (also known as JH1) domain of human JAK1, JAK2, JAK3 and TYK2
T2 sequence (P29597 897-1176 limits assumed): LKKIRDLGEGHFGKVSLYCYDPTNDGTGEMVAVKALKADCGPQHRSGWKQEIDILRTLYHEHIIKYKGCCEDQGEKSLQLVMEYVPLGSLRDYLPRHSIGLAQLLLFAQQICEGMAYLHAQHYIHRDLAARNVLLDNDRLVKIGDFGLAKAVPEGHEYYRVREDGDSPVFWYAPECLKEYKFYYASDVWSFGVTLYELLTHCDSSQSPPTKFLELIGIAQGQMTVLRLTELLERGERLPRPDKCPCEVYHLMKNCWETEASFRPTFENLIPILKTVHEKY
Description: JH1 biochemical assay for TYK2 (ADP-Glo kinase assay, recombinant JH1 catalytic domain, JAK3-974 peptide, 10 μM ATP). Put shortly:
as §1

The target of test [3] is Tyk2 kinase activity on STAT4 in NK92 cells (Homo sapiens, UniProt P29597). Description: pSTAT4 cell assay (MSD; NK92 cells, 30 ng/mL IL2 stimulation). In kind it is cell-based. The note with it: 30 ng/mL IL2, 15 minutes. The method, then: The inhibitory potency of compounds of the disclosure against the Tyk2 kinase activity on STAT4 was evaluated using an MSD-platform plate-based assay format. NK92 cells natively expressing STAT4 and Tyk2 were serum-starved to reduce background phosphorylation levels, then cells were treated compounds for 1 hr with a 10-point four-fold dilution series starting at 10 μM. Cells were then stimulated with 30 ng/mL IL2 for 15 minutes. Cells were lysed and […] levels were quantitated using an MSD plate-based assay with anti-STAT4 antibodies. The data were normalized and the percent activity versus log concentration of compound were fitted with a 4-parameter logistic model to generate to generate IC50 curves.
Chain of Tyk2 kinase activity on STAT4 in NK92 cells (P29597 whole entry): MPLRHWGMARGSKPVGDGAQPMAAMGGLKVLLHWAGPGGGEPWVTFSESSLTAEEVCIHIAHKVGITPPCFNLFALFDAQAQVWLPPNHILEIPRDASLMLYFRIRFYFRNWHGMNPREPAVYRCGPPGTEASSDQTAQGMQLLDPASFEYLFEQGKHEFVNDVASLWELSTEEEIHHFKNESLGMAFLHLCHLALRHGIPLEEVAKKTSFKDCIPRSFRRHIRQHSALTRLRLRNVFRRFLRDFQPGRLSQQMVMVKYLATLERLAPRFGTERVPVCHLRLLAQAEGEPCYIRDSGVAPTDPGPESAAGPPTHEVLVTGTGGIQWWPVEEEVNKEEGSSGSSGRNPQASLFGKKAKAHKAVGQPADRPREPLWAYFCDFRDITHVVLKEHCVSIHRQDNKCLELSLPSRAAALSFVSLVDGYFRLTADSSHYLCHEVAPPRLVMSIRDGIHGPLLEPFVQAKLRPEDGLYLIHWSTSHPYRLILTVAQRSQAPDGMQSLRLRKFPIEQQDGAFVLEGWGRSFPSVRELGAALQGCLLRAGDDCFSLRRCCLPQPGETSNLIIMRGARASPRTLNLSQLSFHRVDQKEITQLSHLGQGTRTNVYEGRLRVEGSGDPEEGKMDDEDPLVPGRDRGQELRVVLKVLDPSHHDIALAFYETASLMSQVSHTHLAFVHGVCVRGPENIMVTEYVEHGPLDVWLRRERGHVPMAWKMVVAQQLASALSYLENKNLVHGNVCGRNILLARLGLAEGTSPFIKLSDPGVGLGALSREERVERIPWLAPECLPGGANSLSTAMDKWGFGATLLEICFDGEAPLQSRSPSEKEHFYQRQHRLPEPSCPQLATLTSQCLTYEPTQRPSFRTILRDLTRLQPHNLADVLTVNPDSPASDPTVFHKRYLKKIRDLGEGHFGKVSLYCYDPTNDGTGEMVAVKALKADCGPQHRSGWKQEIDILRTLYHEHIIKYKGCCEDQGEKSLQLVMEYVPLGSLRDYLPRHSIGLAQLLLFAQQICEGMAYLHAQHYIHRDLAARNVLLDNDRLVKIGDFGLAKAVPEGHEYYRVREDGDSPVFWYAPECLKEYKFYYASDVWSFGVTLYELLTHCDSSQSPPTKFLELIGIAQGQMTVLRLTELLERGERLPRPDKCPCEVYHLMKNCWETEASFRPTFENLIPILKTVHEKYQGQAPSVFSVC

Test [4] deals with T3, human JAK1 kinase domain (JH1) (Homo sapiens, UniProt P23458).
T3 construct: recombinantly generated catalytic kinase (also known as JH1) domain of human JAK1, JAK2, JAK3 and TYK2
T3 sequence (P23458 875-1153 limits assumed): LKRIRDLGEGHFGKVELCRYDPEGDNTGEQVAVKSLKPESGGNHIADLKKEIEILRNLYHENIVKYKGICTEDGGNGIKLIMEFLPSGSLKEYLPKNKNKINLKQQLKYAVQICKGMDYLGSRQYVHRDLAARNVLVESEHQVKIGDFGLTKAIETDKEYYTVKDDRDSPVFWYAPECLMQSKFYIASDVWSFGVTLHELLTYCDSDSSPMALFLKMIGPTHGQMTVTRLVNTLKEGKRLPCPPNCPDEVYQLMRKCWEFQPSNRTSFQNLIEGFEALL
Put plainly: JH1 biochemical assay for JAK1 (ADP-Glo kinase assay, recombinant JH1 catalytic domain, JAK3-342 peptide, 35 μM ATP). Put shortly: as §1

The target in test [5] is T4, human JAK2 kinase domain (JH1) (Homo sapiens, UniProt O60674).
T4 construct: recombinantly generated catalytic kinase (also known as JH1) domain of human JAK1, JAK2, JAK3 and TYK2
T4 sequence (O60674 849-1124 limits assumed): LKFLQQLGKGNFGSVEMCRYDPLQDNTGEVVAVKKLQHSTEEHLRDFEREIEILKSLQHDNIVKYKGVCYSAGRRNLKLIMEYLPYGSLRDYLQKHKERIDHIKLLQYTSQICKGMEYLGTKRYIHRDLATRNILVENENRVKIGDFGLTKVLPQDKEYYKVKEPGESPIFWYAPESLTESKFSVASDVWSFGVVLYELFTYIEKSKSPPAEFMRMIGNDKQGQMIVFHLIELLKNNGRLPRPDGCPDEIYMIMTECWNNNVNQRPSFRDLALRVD
Put plainly: JH1 biochemical assay for JAK2 (ADP-Glo kinase assay, recombinant JH1 catalytic domain, JAK3-974 peptide, 15 μM ATP). The gist of the method: as §1

T1 sequence (P52333 822-1111 limits assumed): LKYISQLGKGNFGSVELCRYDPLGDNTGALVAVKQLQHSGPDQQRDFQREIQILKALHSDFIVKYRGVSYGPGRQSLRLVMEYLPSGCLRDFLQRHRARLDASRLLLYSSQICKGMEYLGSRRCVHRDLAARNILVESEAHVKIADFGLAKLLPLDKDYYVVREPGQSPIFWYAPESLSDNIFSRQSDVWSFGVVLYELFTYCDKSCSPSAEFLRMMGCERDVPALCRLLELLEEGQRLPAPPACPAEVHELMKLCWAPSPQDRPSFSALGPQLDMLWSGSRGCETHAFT

Consider `C[C@@H]1OC[C@@H]1n1cc(-c2cn3ncc(F)c3c(N3C[C@@H](C)[C@@](C#N)(C4CC4)C3=O)n2)cn1` (relative stereo) [Example 305, (3R,4S)-3-cyclopropyl-1-(3-fluoro-6-(1-((2S,3S)-2-methyloxetan-3-yl)-1H-pyrazol-4-yl)pyrazolo[1,5-a]pyrazin-4-yl)-4-methyl-2-oxopyrrolidine-3-carbonitrile and (3R,4S)-3-cyclopropyl-1-(3-fluoro-6-(1-((2R,3R)-2-methyloxetan-3-yl)-1H-pyrazol-4-yl)pyrazolo[1,5-a]pyrazin-4-yl)-4-methyl-2-oxopyrrolidine-3-carbonitrile], for which the pIC50 (commonly the IC50 on a negative log10 scale, so that one unit is a factor of ten) in test [1] (JAK3 JH1, ADP-Glo) was above 7.00; in test [2] (TYK2 JH1, ADP-Glo) it was above 8.30; in test [3], below 7.00; in test [4] (JAK1 JH1, ADP-Glo) it was above 7.00; in test [5] (JAK2 JH1, ADP-Glo) it was above 7.00.
Take `C[C@@H]1CN(c2ccnn3cc(-c4cnn([C@@H]5COCC(F)(F)C5)c4)cc23)C(=O)[C@]1(C#N)C1CC1` (single isomer, unassigned) [Example 328]: the pIC50 in test [1] (JAK3 JH1, ADP-Glo) is above 7.00; in test [2] (TYK2 JH1, ADP-Glo), above 8.30; in test [3], below 7.00; in test [4] (JAK1 JH1, ADP-Glo), above 7.00; in test [5] (JAK2 JH1, ADP-Glo) it was above 7.00.
As for `COc1ccc(-c2cn3nccc3c(N3C[C@@H](C)[C@@](C#N)(C4CC4)C3=O)n2)nc1` [Example 213, (3R,4S)-3-cyclopropyl-1-(6-(5-methoxypyridin-2-yl)pyrazolo[1,5-a]pyrazin-4-yl)-4-methyl-2-oxopyrrolidine-3-carbonitrile], the pIC50 is 6.00 to 7.00 in test [1] (JH1 kinase domain, ADP-Glo); 7.70 to 8.30 in test [2] (JH1 kinase domain, ADP-Glo); below 7.00 in test [3]; above 7.00 in test [4] (JH1 kinase domain, ADP-Glo); 5.30 to 6.00 in test [5] (JH1 kinase domain, ADP-Glo).
Turning to `C[C@@H]1CN(c2nc(-c3ccc(N(C)C(=O)OC(C)(C)C)nc3)cn3nccc23)C(=O)[C@]1(C#N)C1CC1` [Example 266, tert-butyl (5-(4-((3R,4S)-3-cyano-3-cyclopropyl-4-methyl-2-oxopyrrolidin-1-yl)pyrazolo[1,5-a]pyrazin-6-yl)pyridin-2-yl)(methyl)carbamate trifluoroacetate], the pIC50 in test [1] (JAK3 JH1, ADP-Glo) was above 7.00; in test [2] (TYK2 JH1, ADP-Glo), above 8.30; in test [3], 7.00 to 7.30; in test [4] (JAK1 JH1, ADP-Glo), above 7.00; in test [5] (JAK2 JH1, ADP-Glo), above 7.00.
Consider `C[C@@H]1CN(c2cc(-c3cnn(C)c3)cc3nccn23)C(=O)[C@]1(C#N)C1CC1` [Example 287, (3R,4S)-3-cyclopropyl-4-methyl-1-(7-(1-methyl-1H-pyrazol-4-yl)imidazo[1,2-a]pyridin-5-yl)-2-oxopyrrolidine-3-carbonitrile], for which the pIC50 is below 5.00 in test [1] (JAK3 JH1, ADP-Glo); below 7.00 in test [2] (TYK2 JH1, ADP-Glo); below 5.00 in test [4] (JAK1 JH1, ADP-Glo); below 5.00 in test [5] (JAK2 JH1, ADP-Glo).
Consider `C[C@@H]1CN(c2nc(-c3cnn(CC4(C)COC4)c3)cn3ncc(F)c23)C(=O)[C@]1(C#N)C1CC1` [Example 303, (3R,4S)-3-cyclopropyl-1-(3-fluoro-6-(1-((3-methyloxetan-3-yl)methyl)-1H-pyrazol-4-yl)pyrazolo[1,5-a]pyrazin-4-yl)-4-methyl-2-oxopyrrolidine-3-carbonitrile], for which the pIC50 in test [1] (JAK3 JH1, ADP-Glo) is above 7.00; in test [2] (TYK2 JH1, ADP-Glo), above 8.30; in test [3], 7.00 to 7.30; in test [4] (JAK1 JH1, ADP-Glo), above 7.00; in test [5] (JAK2 JH1, ADP-Glo), above 7.00.
As to `CC(C)[C@@]1(C#N)C(=O)N(c2nc(-c3cnn(C)c3)cn3ncc(F)c23)C[C@H]1C` [Example 310, (3R,4S)-1-(3-fluoro-6-(1-methyl-1H-pyrazol-4-yl)pyrazolo[1,5-a]pyrazin-4-yl)-3-isopropyl-4-methyl-2-oxopyrrolidine-3-carbonitrile], the pIC50 was above 7.00 in test [1] (JAK3 JH1, ADP-Glo); 7.70 to 8.30 in test [2] (TYK2 JH1, ADP-Glo); below 7.00 in test [3]; 6.00 to 7.00 in test [4] (JAK1 JH1, ADP-Glo); 6.00 to 7.00 in test [5] (JAK2 JH1, ADP-Glo).
In the case of `C[C@@H]1CN(c2ccnn3cc(-n4cc(C5CN(C)CCO5)cn4)cc23)C(=O)[C@]1(C#N)C1CC1` (stereo partly drawn) [Example 317, (3R,4S)-3-cyclopropyl-4-methyl-1-(6-(4-(4-methylmorpholin-2-yl)-1H-pyrazol-1-yl)pyrrolo[1,2-b]pyridazin-4-yl)-2-oxopyrrolidine-3-carbonitrile], the pIC50 is 6.00 to 7.00 in test [1] (JAK3 JH1, ADP-Glo); 7.30 to 7.70 in test [2] (TYK2 JH1, ADP-Glo); below 7.00 in test [3]; 5.30 to 6.00 in test [4] (JAK1 JH1, ADP-Glo); 6.00 to 7.00 in test [5] (JAK2 JH1, ADP-Glo).
With `Cc1cc(-c2cc(N3C[C@@H](C)[C@@](C#N)(C4CC4)C3=O)c3ccnn3c2)n[nH]1` [Example 318, (3R,4S)-3-cyclopropyl-4-methyl-1-(6-(5-methyl-1H-pyrazol-3-yl)pyrazolo[1,5-a]pyridin-4-yl)-2-oxopyrrolidine-3-carbonitrile], the pIC50 in test [1] (JAK3 JH1, ADP-Glo) is 6.00 to 7.00; in test [2] (TYK2 JH1, ADP-Glo), 7.70 to 8.30; in test [3] it was below 7.00; in test [4] (JAK1 JH1, ADP-Glo), 6.00 to 7.00; in test [5] (JAK2 JH1, ADP-Glo), 5.30 to 6.00.
For `C[C@@H]1CN(c2ccnn3cc(-c4cnn(C5(CO)CC5)c4)cc23)C(=O)[C@]1(C#N)C1CC1` [Example 322, (3R,4S)-3-cyclopropyl-1-(6-(1-(1-(hydroxymethyl)cyclopropyl)-1H-pyrazol-4-yl)pyrrolo[1,2-b]pyridazin-4-yl)-4-methyl-2-oxopyrrolidine-3-carbonitrile], the pIC50 in test [1] (JAK3 JH1, ADP-Glo) is above 7.00; in test [2] (TYK2 JH1, ADP-Glo), above 8.30; in test [3], 7.00 to 7.30; in test [4] (JAK1 JH1, ADP-Glo), 6.00 to 7.00; in test [5] (JAK2 JH1, ADP-Glo), 6.00 to 7.00.
As to `C[C@@H]1CN(c2ccnn3cc(-c4cnn(CC5(C)COC5)c4)cc23)C(=O)[C@]1(C#N)C1CC1` [Example 325, (3R,4S)-3-cyclopropyl-4-methyl-1-(6-(1-((3-methyloxetan-3-yl)methyl)-1H-pyrazol-4-yl)pyrrolo[1,2-b]pyridazin-4-yl)-2-oxopyrrolidine-3-carbonitrile], the pIC50 is above 7.00 in test [1] (JAK3 JH1, ADP-Glo); above 8.30 in test [2] (TYK2 JH1, ADP-Glo); 7.30 to 7.70 in test [3]; above 7.00 in test [4] (JAK1 JH1, ADP-Glo); above 7.00 in test [5] (JAK2 JH1, ADP-Glo).
Take `C[C@@H]1CN(c2ccnn3cc(-n4ccccc4=O)cc23)C(=O)[C@]1(C#N)C1CC1` [Example 340, (3R,4S)-3-cyclopropyl-4-methyl-2-oxo-1-(6-(2-oxopyridin-1(2H)-yl)pyrrolo[1,2-b]pyridazin-4-yl)pyrrolidine-3-carbonitrile]: the pIC50 in test [1] (JAK3 JH1, ADP-Glo) is 5.30 to 6.00; in test [2] (TYK2 JH1, ADP-Glo), below 7.00; in test [4] (JAK1 JH1, ADP-Glo), below 5.00; in test [5] (JAK2 JH1, ADP-Glo), below 5.00.
As to `Cc1ncn(-c2cc3c(N4C[C@@H](C)[C@@](C#N)(C5CC5)C4=O)ccnn3c2)n1` [Example 342, (3R,4S)-3-cyclopropyl-4-methyl-1-(6-(3-methyl-1H-1,2,4-triazol-1-yl)pyrrolo[1,2-b]pyridazin-4-yl)-2-oxopyrrolidine-3-carbonitrile], the pIC50 is 5.30 to 6.00 in test [1] (JAK3 JH1, ADP-Glo); below 7.00 in test [2] (TYK2 JH1, ADP-Glo); 5.30 to 6.00 in test [4] (JAK1 JH1, ADP-Glo); 5.30 to 6.00 in test [5] (JAK2 JH1, ADP-Glo).
On to `Cc1cnn(-c2cc3c(N4C[C@@H](C)[C@@](C#N)(C5CC5)C4=O)ccnn3c2)n1` [Example 343, (3R,4S)-3-cyclopropyl-4-methyl-1-(6-(4-methyl-2H-1,2,3-triazol-2-yl)pyrrolo[1,2-b]pyridazin-4-yl)-2-oxopyrrolidine-3-carbonitrile], for which the pIC50 is below 5.00 in test [1] (JAK3 JH1, ADP-Glo); below 7.00 in test [2] (TYK2 JH1, ADP-Glo); below 5.00 in test [4] (JAK1 JH1, ADP-Glo); below 5.00 in test [5] (JAK2 JH1, ADP-Glo).
As to `Cc1cnn(-c2cc3nccc(N4C[C@@H](C)[C@@](C#N)(C5CC5)C4=O)c3o2)c1` [Example 345, (3R,4S)-3-cyclopropyl-4-methyl-1-(2-(4-methyl-1H-pyrazol-1-yl)furo[3,2-b]pyridin-7-yl)-2-oxopyrrolidine-3-carbonitrile], the pIC50 in test [1] (JAK3 JH1, ADP-Glo) is 5.30 to 6.00; in test [2] (TYK2 JH1, ADP-Glo) it was 7.30 to 7.70; in test [4] (JAK1 JH1, ADP-Glo), 5.30 to 6.00; in test [5] (JAK2 JH1, ADP-Glo) it was 5.30 to 6.00.
Take `C[C@@H]1CN(c2cc(-c3cnn(C)c3)cc3nscc23)C(=O)[C@]1(C#N)C1CC1` [Example 351, (3R,4S)-3-cyclopropyl-4-methyl-1-(6-(1-methyl-1H-pyrazol-4-yl)benzo[c]isothiazol-4-yl)-2-oxopyrrolidine-3-carbonitrile]: the pIC50 was 6.00 to 7.00 in test [1] (JAK3 JH1, ADP-Glo); 7.30 to 7.70 in test [2] (TYK2 JH1, ADP-Glo); 6.00 to 7.00 in test [4] (JAK1 JH1, ADP-Glo); 6.00 to 7.00 in test [5] (JAK2 JH1, ADP-Glo).
